38 molecules from patent US20110275673A1, “INHIBITORS OF SPHINGOSINE KINASE 1” (priority 2008, published 2011) can be followed below.

SMILES strings stand for the structures. Structures can show the parent of a compound that is named as a salt.

T1 sequence (Q9NYA1 whole entry): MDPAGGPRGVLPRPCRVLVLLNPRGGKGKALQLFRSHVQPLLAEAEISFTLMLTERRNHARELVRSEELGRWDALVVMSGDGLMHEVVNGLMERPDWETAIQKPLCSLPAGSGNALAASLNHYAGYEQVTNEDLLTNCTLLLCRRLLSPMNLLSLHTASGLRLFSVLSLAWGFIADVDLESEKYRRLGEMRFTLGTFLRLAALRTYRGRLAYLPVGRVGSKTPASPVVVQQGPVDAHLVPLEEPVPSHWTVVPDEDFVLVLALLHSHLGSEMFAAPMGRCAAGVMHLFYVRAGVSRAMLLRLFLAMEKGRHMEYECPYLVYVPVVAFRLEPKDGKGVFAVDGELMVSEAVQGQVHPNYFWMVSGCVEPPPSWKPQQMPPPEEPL

This assay concerns the target T1, SPHK-1 (Homo sapiens, UniProt Q9NYA1).
T1 construct: purchased BPS Bioscience
The assay is described as follows: Reporter Assay: sphingosine kinase conversion of fluorescein-labeled sphingosine, read on Lab Chip 3000. Format: biochemical. Particulars: 2 μM Fl-sphingosine, 25 μM ATP, 300 ng/ml SK1, 1 hour at room temperature; from percent conversion of substrate to product; read-out: SPHK-1 IC50 (n =). On the procedure:
Sphingosine kinase is a 49 kDa enzyme that catalyzes the formation of sphingosine-1-phosphate (S-1-P) from sphingosine.
Fluorescein labeled sphingosine was obtained from Echelon Biosciences (S-100F). Buffer reagents (1 M Hepes, 10 triton x-100, 100% glycerol, dithiothreitol 1 M MgCl2, ATP, 500 mM EDTA and DMSO) were purchased from Sigma. Coating reagent (CR-3), was obtained from Caliper Life Sciences.
0.05% Triton X-100, 2.5% glycerol, 0.1% CR-3, and 0,6% DMSO. Termination butler included 100 mM Hepes (pH 7.5), 40 mM EDTA, 0.05% Triton X-100, 2.5% glycerol, 0.3% CR-3, and 0.6% DMSO.
All assay components were made in reaction buffer. […] The assaylvas allowed to incubate at room temperature sealed and protected from light for 1 hour.
After 1 hour, 10 μl of termination buffer was added to terminate, the reaction, and the plate was read on a Lab Chip 3000. The plate was read for one cycle. The Lab Chip separated substrate and product based on charge.
Results were calculated based on percent conversion of substrate to product using the following formula: […]
Percent inhibition and IC50's for compounds of the invention were determined using the percent conversion values obtained horn the Lab Chip.
Turning to `CCCCCCS(=O)(=O)Cc1ccc(NC(=O)[C@H]2NCC[C@@H]2O)cc1` [Example 46, (2S,3S)-N-(4-(hexylsulfonyl-methyl)phenyl)-3-hydroxy-pyrrolidine-2-carboxamide], the IC50 is greater than 10000 nM. On to `CC(C)CCCCCCc1ccc(NC(=O)[C@@H](N)[C@@H](C)O)cc1` [Example 16, (2S,3R)-2-Amino-3-hydroxy-N-(4-(7-methyloctyl)phenyl) butanamide], for which the IC50 is 150 nM. Next, `CCCCCCCc1ccc(-c2ccc(NC(=O)[C@H]3NCC[C@@H]3O)cc2)nc1` [Example 104, (2S,3S)—N-(4-(5-heptylpyridin-2-yl)phenyl)-3-hydroxypyrrolidine-2-carboxamide]: 1600 nM. Next, `CCCCCCCCCc1ccc(NC(=O)[C@@H](N)[C@@H](C)O)cc1` [Example 14, (2S,3R)-2-Amino-3-hydroxy-N-(4-nonylphenyl) butanamide]: 180 nM. Next, `CCCCCCCc1nc(-c2ccc3c(c2)CC[C@H]3NC(=O)[C@H]2NCC[C@@H]2O)no1` [Example 61]: 6900 nM; `CCCCCCOCc1ccc(NC(=O)[C@H]2NCC[C@@H]2O)cc1` [Example 19, (2S,3S)-N-(4-(Hexyloxy-methyl)phenyl)-3-hydroxy-pyrrolidine-2-carboxamide]: 990 nM. As for `O=C(Nc1ccc(CCCC2CCCCC2)cc1)[C@H]1NCC[C@@H]1O` [Example 50, (2S,3S)-N-(4-(3-cyclohexyl-propyl)phenyl)-3-hydroxy-pyrrolidine-2-carboxamide], the IC50 was 950 nM. Regarding `CCCCC(=O)CCCCCc1ccc(NC(=O)[C@@H](N)[C@@H](C)O)cc1` [Example 33, (2S,3R)-2-amino-3-hydroxy-N-(4-(6-oxodecyl)phenyl) butanamide], the 50% inhibitory concentration (IC50) came out at 6100 nM. Next, `CCCCCCCSCc1ccc(CNC(=O)[C@H]2NCC[C@@H]2O)cc1` [Example 43, (2S,3S)-N-(4-(heptylthio-methyl)benzyl)-3-hydroxy-pyrrolidine-2-carboxamide]: 180 nM; `O=C(NCc1ccc(-n2cc(CCc3ccccc3)nn2)cc1)[C@H]1NCC[C@@H]1O` [Example 65, (2S,3S)-3-Hydroxy-N-(4-(4-phenethyl-1H-1,2,3-triazol-1-yl)benzyl)pyrrolidine-2-carboxamide]: 1600 nM. With `CCCCCCCCc1ccc(O)c(NC(=O)[C@H]2NCC[C@@H]2O)c1` [Example 58, hydrochloride], the IC50 stood at 3600 nM. As for `CCCCCCCc1noc(-c2ccc(CNC(=O)[C@@H]3C[C@@H](O)CCN3)cc2)n1` [Example 102, (2S,4S)—N-(4-(3-heptyl-1,2,4-oxadiazol-5-yl)benzyl)-4-hydroxypiperidine-2-carboxamide], the IC50 came to 2700 nM. With `C[C@@H](O)[C@H](N)C(=O)Nc1ccc(CCCCCOc2ccc(F)cc2)cc1` [Example 22, (2S,3R)-2-Amino-N-(4-(5-(4-fluorophenoxy)pentyl)phenyl)-3-hydroxy-butanamide], the IC50 was determined as 3200 nM. As to `CCCCCCCCCCCc1ccc(NC(=O)[C@@H](N)[C@@H](C)O)cc1` [Example 7, (2S,3R)-2-Amino-3-hydroxy-N-(4-undecylphenyl) butanamide], the IC50 was 110 nM. Then `O=C(NCc1ccc2oc(CC3CCCCC3)cc2c1)[C@H]1NCC[C@@H]1O` [Example 116, (2S,3S)—N-((2-(Cyclohexylmethyl)benzofuran-5-yl)methyl)-3-hydroxypyrrolidine-2-carboxamide], with 110 nM; and `O=C(NCc1ccc(-n2cc(CCc3ccc(F)cc3)nn2)cc1)[C@H]1NCC[C@@H]1O` [Example 68, (2S,3S)—N-(4-(4-(4-Fluorophenethyl)-1H-1,2,3-triazol-1-yl)benzyl)-3-hydroxypyrrolidine-2-carboxamide], with 7300 nM.

Take `CCCCCCCCOCc1ccc(NC(=O)[C@H]2NCC[C@@H]2O)cc1` [Example 21, (2S,3S)-3-Hydroxy-N-(4-(octyloxymethyl)phenyl) pyrrolidine-2-carboxamide]: the IC50 was determined as 4.9 nM.

For the molecule `CCCCCCCCc1ccc(NC(=O)[C@H](N)[C@H](C)O)cc1` [Example 30, (2R,3S)-2-Amino-3-hydroxy-N-(4-octylphenyl) butanamide], the IC50 came to 2100 nM. As for `CCCCCCCCc1ccc(NC(=O)[C@H](N)CO)cc1` [Example 3, (R)-2-Amino-3-hydroxy-N-(4-octylphenyl) propanamide], the IC50 came out at 5000 nM. Regarding `CCCCCCCCCc1ccc(NC(=O)C(N)CO)cc1` (racemic) [Example 13, (+/−)-2-Amino-3-hydroxy-N-(4-nonylphenyl) propanamide], the IC50 came out at 3800 nM. Next, `CCCCCCCCCCc1ccc(NC(=O)[C@H]2C[C@H](O)CCN2)cc1` [Example 123, (2R,4R)—N-(4-decylphenyl)-4-hydroxypiperidine-2-carboxamide]: 9700 nM; `CCCCCCCCc1ccc(NC(=O)[C@@H](N)CCCCO)cc1` [Example 52, (S)-2-Amino-6-hydroxy-N-(4-octylphenyl) hexanamide]: 4000 nM. In the case of `O=C(Nc1ccc(CCCOc2ccc(F)cc2)cc1)[C@H]1NCC[C@@H]1O` [Example 23, (2S,3S)-N-(4-(3-(4-Fluorophenoxy)propyl)phenyl)-3-hydroxy-pyrrolidine-2-carboxamide], the IC50 came out at 1500 nM. Then `CCCCCCCc1nc(-c2ccc(CNC(=O)[C@@H](N)CCO)cc2)no1` [Example 83, (S)-2-Amino-N-(4-(5-heptyl-1,2,4-oxadiazol-3-yl)benzyl)-4-hydroxybutanamide], with 600 nM; and `CCCCC(=O)CCCCCc1ccc(NC(=O)[C@H]2NCC[C@@H]2O)cc1` [Example 38, (2S,3S)-3-hydroxy-N-(4-(6-oxodecyl)phenyl) pyrrolidine-2-carboxamide], with 86 nM; and `CCCCCCCc1nc(-c2ccc3c(c2)CC[C@@H]3NC(=O)[C@H]2NCC[C@@H]2O)no1` [Example 62, (2S,3S)—N—((S)-5-(5-heptyl-1,2,3-oxadiazol-3-yl)-2,3-dihydro-1H-inden-1-yl)-3-hydroxypyrrolidine-2-carboxamide], with 60 nM. In the case of `O=C(NCc1ccc(CCCCCOc2ccc(F)cc2)cc1)[C@H]1NCC[C@@H]1O` [Example 28, (2S,3S)-N-(4-(5-(4-Fluorophenoxy)pentyl)benzyl)-3-hydroxy-pyrrolidine-2-carboxamide], the IC50 worked out at 4700 nM. For the molecule `CCCCCCCc1ccc(CNC(=O)[C@H]2NCC[C@@H]2O)cc1` [Example 37, (2S,3S)-N-(4-heptylbenzyl)-3-hydroxy-pyrrolidine-2-carboxamide], the IC50 was determined as 470 nM. Next, `Cn1nc(-c2ccc(CNC(=O)[C@H]3NCC[C@@H]3O)cc2)nc1C1CCCCC1` [Example 63, (2S,3S)—N-(4-(5-Cyclohexyl-1-methyl-1H-1,2,4-triazol-3-yl)benzyl)-3-hydroxypyrrolidine-2-carboxamide]: 2100 nM. Next, `CCCCCCCCc1cc2cc(CNC(=O)[C@H]3NCC[C@@H]3O)c(F)cc2o1` [Example 119, (2S,3S)—N-((6-Fluoro-2-octylbenzofuran-5-yl)methyl)-3-hydroxypyrrolidine-2-carboxamide]: 700 nM; `CC[C@H](NC(=O)[C@H]1NCC[C@@H]1O)c1ccc(-c2noc(C3CCCCC3)n2)cc1` [Example 99, (2S,3S)—N—((S)-1-(4-(5-Cyclohexyl-1,2,4-oxadiazol-3-yl)phenyl)propyl)-3-hydroxypyrrolidine-2-carboxamide hemi-tartrate salt]: 130 nM; `CCCCCCCCc1ccc(NC(=O)[C@H](N)[C@@H](C)O)cc1` [Example 31, (2R,3R)-2-Amino-3-hydroxy-N-(4-octylphenyl) butanamide]: 1600 nM.

Regarding `CCCCCCCCc1ccc(NC(=O)[C@H]([C@H](C)O)N(Cc2ccccc2)Cc2ccccc2)cc1` [Example 49, (2S,3S)-2-(dibenzyl-amino)-3-hydroxy-N-(4-octylphenyl) butanamide], the IC50 was greater than 1000 nM.

As for `CC(C)Cc1ccc(-c2nc(-c3ccc(CNC(=O)[C@H]4NCC[C@@H]4O)cc3)no2)cc1` [Example 78, (2S,3S)-3-Hydroxy-N-(4-(5-(4-isobutylphenyl)-1,2,4-oxadiazol-3-yl)benzyl)pyrrolidine-2-carboxamide], the IC50 turned out to be 4400 nM. Then `CCCCCCCCCCc1ccc(NC(=O)[C@H]2NCCC[C@H]2O)cc1` (relative stereo) [Example 45, cis-N-(4-decylphenyl)-3-hydroxy-piperidine-2-carboxamide], with greater than 10000 nM; and `CCCCCCCCc1ccc(NC(=O)[C@@H](N)[C@@H](C)O)cc1` [Example 29, (2S,3R)-2-Amino-3-hydroxy-N-(4-octylphenyl) butanamide], with 870 nM; and `CCCCCCCCc1nc(-c2ccc(CNC(=O)[C@H]3NCC[C@@H]3O)cc2)cs1` [Example 103, (2S,3S)-3-hydroxy-N-(4-(2-octylthiazol-4-yl)benzyl)pyrrolidine-2-carboxamide], with 49 nM.

In the case of `CC[C@H](NC(=O)[C@H]1NCC[C@@H]1O)c1ccc(-n2cc(CCc3ccccc3)nn2)cc1` [Example 66, (2S,3S)-3-Hydroxy-N—((S)-1-(4-(4-phenethyl-1H-1,2,3-triazol-1-yl)phenyl)propyl)pyrrolidine-2-carboxamide], the IC50 was 140 nM.
